For series [1] the following is noted: cited from earlier work.
The test system of series [2] is bone-specific alkaline phosphatase (BAP). The experiment in a line: Clinical trial: bone-specific alkaline phosphatase (BAP), serum marker. The series is classed as in vivo, human. Conditions: for BAP, GLM least square mean after 4 months: daily 20 μg or weekly 140 μg oral, adjusted for baseline, age, body mass index, postmenopausal women. The source says:
(§1) Each group included five subjects.
(§2) Equimolar quantities of both substances were investigated.
(§3) Each dosage was consumed orally at breakfast.
(§4) Treatment duration was 4 months.

Series [3] concerns deoxypyridinoline (DPD). The experiment in a line: Clinical trial: bone resorption marker deoxypyridinoline (DPD), urine marker. The series is classed as in vivo, human. Conditions: for DPD, GLM least square mean after 4 months: daily 20 μg or weekly 140 μg oral, adjusted for baseline, age, body mass index, postmenopausal women.
From the text: as §1, §2, §3, §4

The nature of series [4]: Clinical trial: plasma 25-OH D after single oral bolus (pharmacokinetics). The settings on record: single oral dose 140 μg of each active. The procedure:
Subjects were randomly assigned to one of […] treatment groups (i.e., daily, weekly, bolus as single dose, and bolus as combination dose). Each group included five subjects. They are followed for four months in Zürich, Switzerland during the winter.
Equimolar quantities of both substances were investigated. The regimen was based on 20 μg/day (or its equivalent on a weekly basis) of 25-OH D3.
Each dosage was consumed orally at breakfast. The duration of the study was four months for the “Daily” and “Weekly” groups. Subjects enrolled in the “Bolus” group consumed orally a single dosage at the second study visit.
Plasma concentrations of 25-OH D3 (e.g., peak and steady state) were determined by obtaining samples from the subjects at various times after the dosage was ingested. […] The assessments continued on Monday of Weeks 3, 5, 7, 9, 11, 13 and 15.

The mark [5] stands for this setting: daily 20 μg or weekly 140 μg, 4 months, repeated measurement analysis over 13 visits.
Where [6] appears, read: daily or weekly treatment, identical dosages, 4 months.

The text below walks through data of patent publication US20110039809A1 (priority 2008, published 2011).

Vitamin D: in series [1] (250 μg/day vitamin D), the “Blood concentration of 25-hydroxyvitamin D after ingestion of the safe upper level as dietary supplement” value is “about 200 nmol/L”.
25-hydroxyvitamin D: the “Blood concentration above which hypercalcemia may occur” value in series [1] (in vivo) is “greater than 375 nmol/L”.
For the compound `C=C1CC[C@H](O)C/C1=C/C=C1\CCC[C@]2(C)[C@@H]([C@H](C)CCCC(C)C)CC[C@@H]12` [Vitamin D3, cholecalciferol], the “BAP, GLM least square mean after 4 months” value in series [2] turned out to be 76.5 IU/L. For the same compound, in series [3], the “DPD, GLM least square mean after 4 months” value is reported as 9.8 nmol/mmol creatine. Further, the “Time span with increase in plasma 25-OH D levels by at least 30 nmol/L” value in series [4] is “no increase of that magnitude was observed”.
Turning to `C=C1CC[C@H](O)C/C1=C/C=C1\CCC[C@]2(C)[C@@H]([C@H](C)CCCC(C)(C)O)CC[C@@H]12` [25-OH D3, 25-hydroxyvitamin D3], the “BAP, GLM least square mean after 4 months” value in series [2] is given as 74.7 IU/L. Moreover, the “BAP change vs. Daily/weekly Vitamin D3” value in series [2] (setting [5]) is −2.4%. Further, in series [2] (setting [6]), the “Reduction of BAP versus Vitamin D3” value was 2.4%. Moreover, in series [3], the “DPD, GLM least square mean after 4 months” value worked out at 8.2 nmol/mmol creatine. In addition, in series [3] (setting [5]), the “DPD change vs. Daily/weekly Vitamin D3” value is given as −17.0%. The “Reduction of DPD versus Vitamin D3” value in series [3] (setting [6]) came to 17.0%. Besides, in series [4], the “Time span with increase in plasma 25-OH D levels by at least 30 nmol/L” value was in the range of 4 to 49 h.
